From patent US20260076949A1, “STABLE MONOHYDRATE OF DF2755A AND PROCESS FOR ITS PREPARATION” (Dompe' Farmaceutici SPA, priority 2023, published 2026)

How the values were obtained:
[1] = Water content by Karl-Fischer of the prepared product; format: physicochemical; settings: product as prepared by controlled hydration
Method: (§1) • Instrument: Mettler DL38, V30 or equivalent • Electrode: Double platinum pin electrode DM 143-SC for Karl Fischer titration. • Titrant: Karl Fischer reagent 5 mg H2O/ml • Solvent: 30 ml of methanol previously neutralized with Karl Fischer reagent. • Procedure: about 0.2 g of the product, accurately weighed, were dissolved in the solvent and titrated with the Karl Fischer reagent.
[formula] • where • V=ml of the Karl Fischer reagent used in the titration • e=equivalent of the Karl Fischer reagent (mg H2O/ml) • w=weight of the sample in g
(§2) The analysis was carried out on three samples and the results averaged. The limit had to be not more than 10.0%.

[2] = Tapped and bulk density (Ph. Eur. 2.9.34), compressibility index, Hausner ratio; format: physicochemical
Method: Tapped and Bulk Density were determined with a density tester ERWEKA SMV 102 (Heusenstamm, Germany) according to European Pharmacopeia (Ph. Eur. 2.9.34).
Compressibility Index was calculated according to the formula:
C.I.=100×(tapped density−bulk density)/tapped density.
Hausner ratio was calculated according to the formula:
H.r.=tapped density/bulk density

[3] = Particle size distribution (Malvern Mastersizer 3000, Aero S); format: physicochemical; settings: powder of Example 3A
Method: Particle Size Distribution was measured by Malvern Mastersizer 3000 using Aero S accessory.

[4] = Stability test under conditions A (30° C. and 65% R.H.); format: physicochemical
Method: (§3) The monohydrate DF2755A was then subjected to stability tests under the following conditions: • A) at 30° C. and 65% R.H. (up to 18 months) and • B) at 40° C. and 75% R.H. (accelerated stability up to 12 months).
(§4) The samples were analysed for appearance, water content, HPLC purity, HPLC assay, HPLC enantiomeric purity and DSC thermal behaviour.

[5] = Stability test under accelerated conditions B (40° C. and 75% R.H.); format: physicochemical; design: key to Appearance: Compl.: Compl: compliant
Method: • Apparatus: Agilent HP 1100, HP 1200 or equivalent HPLC system with UV detector • Detector: wavelength: 220 nm • Column: BDS Hypersyl C18, 250×4.6 mm, 5 μm (Thermo) or equivalent • Column temperature: 35° C. • Mobile phase: (A) Buffer solution KH2PO4 0.025M (pH 3.0). Procedure: dissolve 3.4 g of potassium dihydrogen phosphate in water and dilute to 1000 ml with water; adjust to pH 3.0 with dilute phosphoric acid or with potassium hydroxide solutions. (B) acetonitrile. • Flow: 1.3 ml/minute • Injection Volume: 10 μl • Time between injections: 26 min • Diluent: H2O/CH3CN (40/60) • Relative retention time: DF 2755 Rt 11.8 min • Gradient: Table 2
• Chromatographic conditions • Apparatus: Agilent HP 1100, HP 1200 or equivalent HPLC system with UV detector • Detector: wavelength: 294 nm • Column: Chiralpak AS-RH, 150×4.6 mm […] (Daicel) or equivalent • Column temperature: 35° C. • Mobile phase: (A) Buffer solution KH2PO4 0.025M (pH 3.0) Procedure: dissolve 3.4 g of potassium dihydrogen phosphate in water and dilute to 1000 ml with water; adjust to pH 3.0 with dilute phosphoric acid or with potassium hydroxide solutions; (B) acetonitrile • Flow: 0.7 ml/minute • Injection volume: 10 μl • Time between injections: 45 min • Diluent: H2O/CH3CN (40/60) • Eluent: 70% Mobile phase A, 30% Mobile phase B
as §1, §2, §3, §4

[6] = Stability test of anhydrous form in climatic chamber (50% R.H., about 25° C., 24 hours); format: physicochemical
Method: as §1

[7] = background, literature; cited from earlier work
CXCR1 = target: T1, CXCR1 (Homo sapiens, UniProt P25024); settings: background, literature; cited from earlier work
T1 sequence (P25024 1-350): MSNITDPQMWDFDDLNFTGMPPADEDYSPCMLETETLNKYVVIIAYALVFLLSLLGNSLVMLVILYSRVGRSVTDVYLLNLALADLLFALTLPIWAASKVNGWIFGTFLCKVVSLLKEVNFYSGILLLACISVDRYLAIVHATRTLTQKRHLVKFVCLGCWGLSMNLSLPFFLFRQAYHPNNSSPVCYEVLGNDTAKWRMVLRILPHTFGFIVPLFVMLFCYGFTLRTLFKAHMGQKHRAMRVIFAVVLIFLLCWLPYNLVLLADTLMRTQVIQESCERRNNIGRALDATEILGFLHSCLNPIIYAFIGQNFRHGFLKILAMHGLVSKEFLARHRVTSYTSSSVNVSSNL

CXCR2 = target: T2, CXCR2 (Homo sapiens, UniProt P25025); settings: background, literature; cited from earlier work
T2 sequence (P25025 1-360): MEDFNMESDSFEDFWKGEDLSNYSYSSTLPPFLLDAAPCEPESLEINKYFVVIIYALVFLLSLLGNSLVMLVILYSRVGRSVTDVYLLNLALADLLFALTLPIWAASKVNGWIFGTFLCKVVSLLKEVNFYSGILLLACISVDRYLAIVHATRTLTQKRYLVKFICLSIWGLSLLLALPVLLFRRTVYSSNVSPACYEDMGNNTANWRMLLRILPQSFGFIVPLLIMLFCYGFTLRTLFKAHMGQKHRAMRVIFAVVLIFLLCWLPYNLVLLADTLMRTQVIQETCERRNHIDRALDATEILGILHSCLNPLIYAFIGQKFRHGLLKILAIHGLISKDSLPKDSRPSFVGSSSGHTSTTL

[8] = 50% R.H., about 25° C., 24 hours

Q: What does the source list for `C[C@H](C(=O)[O-])c1ccc(Nc2nc(C(F)(F)F)cs2)cc1.O.[Na+]` [monohydrate DF2755A, crystalline monohydrate sodium (2S)-2-(4-{[4-(trifluoromethyl)-1,3-thiazol-2-yl]amino}phenyl) propanoate]?
A: Water content by Karl Fisher method [1]: 5.27 % by weight; Compressibility index ([2]; 100×(tapped density−bulk density)/tapped density): 30.7; Bulk density ([2]; powder of Example 3A): 0.178 g/mL; Tapped density ([2]; powder of Example 3A): 0.256 g/mL; Hausner ratio ([2]; tapped density/bulk density): 1.44; Particle size distribution D(0.1) [3]: 2.09 μm; Particle size distribution D(0.5) [3]: 7.86 μm; Particle size distribution D(0.9) [3]: 25.42 μm; Time completely stable ([4]; 30° C. and 65% R.H.): ≥ 18 months; DSC profile over time ([4]; 30° C./65% R.H.): substantially the same DSC profile over time; Assay % (HPLC) ([5]; 40° C./75% R.H., 0 months): 97.40%; DFL23803 (HPLC) by-product content ([5]; 40° C./75% R.H., 0 months): ≤0.11%; Enantiomeric purity % (HPLC): DF2703Y content ([5]; 40° C./75% R.H., 0 months): 1.0%; Total impurities content % (HPLC) ([5]; 40° C./75% R.H., 0 months): 0.03%; Water content (K.F %) ([5]; 40° C./75% R.H., 0 months): 5.27%; Appearance ([5]; 40° C./75% R.H., 0 months, limit white to ivory powder): Compl.; Appearance ([5]; 40° C./75% R.H., 1 month): Compl.; Assay % (HPLC) ([5]; 40° C./75% R.H., 1 month): 96.93%; DFL23803 (HPLC) by-product content ([5]; 40° C./75% R.H., 1 month): ≤0.11%; Enantiomeric purity % (HPLC): DF2703Y content ([5]; 40° C./75% R.H., 1 month): 1.0%; Total impurities content % (HPLC) ([5]; 40° C./75% R.H., 1 month): 0.03%; Water content (K.F %) ([5]; 40° C./75% R.H., 1 month): 5.27%; Appearance ([5]; 40° C./75% R.H., 3 months): Compl.; Assay % (HPLC) ([5]; 40° C./75% R.H., 3 months): 97.67%; DFL23803 (HPLC) by-product content ([5]; 40° C./75% R.H., 3 months): ≤0.11%; Enantiomeric purity % (HPLC): DF2703Y content ([5]; 40° C./75% R.H., 3 months): 1.0%; Total impurities content % (HPLC) ([5]; 40° C./75% R.H., 3 months): 0.03%; Water content (K.F %) ([5]; 40° C./75% R.H., 3 months): 5.12%; Appearance ([5]; 40° C./75% R.H., 6 months): Compl.; Assay % (HPLC) ([5]; 40° C./75% R.H., 6 months): 96.94%; DFL23803 (HPLC) by-product content ([5]; 40° C./75% R.H., 6 months): ≤0.11%; Enantiomeric purity % (HPLC): DF2703Y content ([5]; 40° C./75% R.H., 6 months): 1.0%; Total impurities content % (HPLC) ([5]; 40° C./75% R.H., 6 months): 0.03%; Water content (K.F %) ([5]; 40° C./75% R.H., 6 months): 4.95%; Appearance ([5]; 40° C./75% R.H., 12 months): Compl.; Assay % (HPLC) ([5]; 40° C./75% R.H., 12 months): 100.3%; DFL23803 (HPLC) by-product content ([5]; 40° C./75% R.H., 12 months): ≤0.11%; Enantiomeric purity % (HPLC): DF2703Y content ([5]; 40° C./75% R.H., 12 months): 1.0%; Total impurities content % (HPLC) ([5]; 40° C./75% R.H., 12 months): 0.02%; Water content (K.F %) ([5]; 40° C./75% R.H., 12 months): 5.17%; Time completely stable ([5]; accelerated conditions B, 40° C. and 75% R.H.): ≥ 12 months; DSC profile over time ([5]; conditions B, 40° C./75% R.H.): substantially the same DSC profile over time; Hygroscopicity ([5]; unchanged water content for at least 12 months under accelerated stability conditions): not hygroscopic

Q: With `C[C@H](C(=O)[O-])c1ccc(Nc2nc(C(F)(F)F)cs2)cc1.[Na+]` [anhydrous DF2755A, sodium (2S)-2-(4-{[4-(trifluoromethyl)-1,3-thiazol-2-yl]amino}phenyl) propanoate] as the compound, how does the Appearance after exposure [6, 8] read?
A: sticky hydrated solid

Q: And the “Water content measured by Karl Fischer analysis after exposure” value [6, 8]?
A: 17%

Q: And the “Amount of by-product of hydroxylation at position 4 of the thiazole ring (1H-NMR)” value ([6]; after exposure to humidity, about 25° C., 24 hours)?
A: about 50 % mol/mol

Q: And the Hygroscopicity ([6]; anhydrous form, absorbs water from the environment)?
A: highly hygroscopic

Q: And the Stability conclusion ([6]; under the test conditions (50% R.H., about 25° C., 24 hours))?
A: both physically and chemically unstable

Q: And the Oral pharmacokinetic profile [7]?
A: favorable

Q: What about the “Inhibitory activity of CXCR1 receptor” value (CXCR1) of the same compound?
A: selective dual potent inhibitory activity

Q: What about the “Inhibitory activity of CXCR2 receptor” value (CXCR2) of the same compound?
A: selective dual potent inhibitory activity
